Experimental data from patent US12503475B2 (Centessa Pharmaceuticals (UK) Limited, priority 2020, dated 2025).

Biological target: T1, human orexin type 2 receptor (hOX2R) (Homo sapiens, UniProt O43614)
T1 construct: expressed in transfected cells
T1 sequence (O43614 1-444): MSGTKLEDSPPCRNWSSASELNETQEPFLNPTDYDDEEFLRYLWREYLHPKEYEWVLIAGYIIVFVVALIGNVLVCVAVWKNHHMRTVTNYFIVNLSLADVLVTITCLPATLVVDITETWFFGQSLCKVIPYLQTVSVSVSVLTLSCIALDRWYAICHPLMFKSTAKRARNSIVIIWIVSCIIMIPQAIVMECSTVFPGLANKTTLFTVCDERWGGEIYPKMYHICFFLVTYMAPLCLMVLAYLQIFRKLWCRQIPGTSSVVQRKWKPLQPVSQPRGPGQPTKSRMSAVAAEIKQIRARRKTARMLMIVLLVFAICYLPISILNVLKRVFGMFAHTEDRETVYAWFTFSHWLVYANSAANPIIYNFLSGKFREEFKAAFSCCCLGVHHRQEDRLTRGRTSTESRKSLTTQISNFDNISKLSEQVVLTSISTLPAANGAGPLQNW
Assay: Measurement of orexin type 2 receptor agonist activity (FLIPR calcium fluorescence)
Assay type: cell-based
Conditions: CHO cells expressing hOX2R, FLIPR calcium fluorescence; for EC50: read-out: hOx2 pEC50 (converted); for Emax: CHO, read-out: hOx2 Emax (%)
Experimental: The biological activity of the compounds of the present disclosure may be determined in cells stably expressing either orexin type 2 or orexin type 1 receptor. […] The agonist activity of a compound of the present disclosure may be determined by fluorescence value.
Stable cell line generation.
Measurement of orexin type 2 receptor agonist activity. […] As used herein, E. indicates the value at 10 μM concentration when orexin A is converted to a full agonist (maximum value of agonist activity. 100%).

Row | SMILES | EC50 [nM] | Emax [%]
1 | CCNC(=O)N1CC2(CC2)C(NS(C)(=O)=O)C1Cc1cccc(-c2ccccc2)c1OC (racemic) [Compound 44, N-ethyl-6-((2-methoxy-[1,1′-biphenyl]-3-yl)methyl)-7-(methylsulfonamido)-5-azaspiro[2.4]heptane-5-carboxamide] | 1 to 10 | 80 to 90
2 | CS(=O)(=O)NC1C(Cc2cccc(-c3ccccc3)c2F)N(C(=O)N2CC(F)C2)CC12CC2 (racemic) [Compound 45, N-(6-((2-fluoro-[1,1′-biphenyl]-3-yl)methyl)-5-(3-fluoroazetidine-1-carbonyl)-5-azaspiro[2.4]heptan-7-yl)methanesulfonamide] | 1 to 10 | 90 to 100
3 | COC1CN(C(=O)N2CC3(CC3)C(NS(C)(=O)=O)C2Cc2cccc(-c3ccccc3)c2F)C1 (racemic) [Compound 46, N-(6-((2-fluoro-[1,1′-biphenyl]-3-yl)methyl)-5-(3-methoxyazetidine-1-carbonyl)-5-azaspiro[2.4]heptan-7-yl)methanesulfonamide] | 10 to 100 | 90 to 100
4 | CS(=O)(=O)NC1C(Cc2cccc(-c3ccccc3)c2)N(C(=O)[C@H]2C[C@H](F)C2)CC12CC2 (mixture of isomers) [Compound 49, N-(6-([1,1′-biphenyl]-3-ylmethyl)-5-((1r,3r)-3-fluorocyclobutane-1-carbonyl)-5-azaspiro[2.4]heptan-7-yl)methanesulfonamide] | 1 to 10 | 90 to 100
5 | CS(=O)(=O)NC1C(Cc2cccc(-c3ccccc3)c2F)N(C(=O)C2(O)CCC2)CC12CC2 (racemic) [Compound 50, N-(6-((2-fluoro-[1,1′-biphenyl]-3-yl)methyl)-5-(1-hydroxycyclobutane-1-carbonyl)-5-azaspiro[2.4]heptan-7-yl)methanesulfonamide] | 0.0794 to 1 | 90 to 100
6 | CS(=O)(=O)NC1C(Cc2cccc(-c3cccc(F)c3)c2)N(C(=O)C2(O)CCC2)CC12CC2 (racemic) [Compound 51, N-(6-((3′-fluoro-[1,1′-biphenyl]-3-yl)methyl)-5-(1-hydroxycyclobutane-1-carbonyl)-5-zaspiro[2.4]heptan-7-yl)methanesulfonamide] | 1 to 10 | 90 to 100
7 | CCNC(=O)N1CC2(CC2)C(NS(=O)(=O)CC)C1Cc1cccc(-c2ccccc2)c1F (racemic) [Compound 52, N-ethyl-7-(ethylsulfonamido)-6-((2-fluoro-[1,1′-biphenyl]-3-yl)methyl)-5-azaspiro[2.4]heptane-5-carboxamide] | 0.0794 to 1 | 90 to 100
8 | CC1CN(C(=O)N2CC3(CC3)C(NS(C)(=O)=O)C2Cc2cccc(-c3ccccc3)c2)C1 (racemic) [Compound 57, N-(6-([1,1′-biphenyl]-3-ylmethyl)-5-(3-methylazetidine-1-carbonyl)-5-azaspiro[2.4]heptan-7-yl)methanesulfonamide] | 1 to 10 | 90 to 100
9 | CS(=O)(=O)NC1C(Cc2cccc(-c3ccccc3)c2)N(C(=O)C23CC2C3)CC12CC2 (racemic) [Compound 66, N-(6-([1,1′-biphenyl]-3-ylmethyl)-5-(bicyclo[1.1.0]butane-1-carbonyl)-5-azaspiro[2.4]heptan-7-yl)methanesulfonamide] | 10 to 100 | 90 to 100
10 | CS(=O)(=O)NC1C(Cc2cccc(-c3ccccc3)c2F)N(C(=O)[C@H]2C[C@H](F)C2)CC12CC2 (mixture of isomers) [Compound 90, N-(6-((2-fluoro-[1,1′-biphenyl]-3-yl)methyl)-5-((1r,3r)-3-fluorocyclobutane-1-carbonyl)-5-azaspiro[2.4]heptan-7-yl)methanesulfonamide] | 1 to 10 | 90 to 100
11 | CS(=O)(=O)NC1C(Cc2cccc(-c3ccccc3)c2F)N(C(=O)[C@H]2C[C@@H](F)C2)CC12CC2 (mixture of isomers) [Compound 91, N-(6-((2-fluoro-[1,1′-biphenyl]-3-yl)methyl)-5-((1s,3s)-3-fluorocyclobutane-1-carbonyl)-5-azaspiro[2.4]heptan-7-yl)methanesulfonamide] | 10 to 100 | 90 to 100
12 | CN(C)S(=O)(=O)NC1C(Cc2cccc(-c3ccccc3)c2F)N(C(=O)C2CCC2)CC12CC2 (racemic) [Compound 92, N-(5-(cyclobutanecarbonyl)-6-((2-fluoro-[1,1′-biphenyl]-3-yl)methyl)-5-azaspiro[2.4]heptan-7-yl)-N,N-dimethylsulfuric diamide] | 1 to 10 | 90 to 100
13 | O=C(N1CC(F)C1)N1CC2(CC2)C(NS(=O)(=O)CF)C1Cc1cccc(-c2ccccc2)c1F (racemic) [Compound 105, 1-fluoro-N-(6-((2-fluoro-[1,1′-biphenyl]-3-yl)methyl)-5-(3-fluoroazetidine-1-carbonyl)-5-azaspiro[2.4]heptan-7-yl)methanesulfonamide] | 1 to 10 | 90 to 100
14 | O=C(C1CCC1)N1CC2(CC2)C(NS(=O)(=O)CF)C1Cc1cccc(-c2ccccc2)c1F (racemic) [Compound 106, N-(5-5(cyclobutanecarbonyl)-6-((2-fluoro-[1,1′-biphenyl]-3-yl)methyl)-5-azaspiro[2.4]heptan-7-yl)-1-fluoromethanesulfonamide] | 0.0794 to 1 | 90 to 100
15 | O=C(N1CC2(CC2)C(NS(=O)(=O)CF)C1Cc1cccc(-c2ccccc2)c1F)C1(O)CCC1 (racemic) [Compound 108, 1-fluoro-N-(6-((2-fluoro-[1,1′-biphenyl]-3-yl)methyl)-5-(1-hydroxycyclobutane-1-carbonyl)-5-azaspiro[2.4]heptan-7-yl)methanesulfonamide] | 0.0794 to 1 | 90 to 100
16 | CCNC(=O)N1CC2(CC2)C(NS(=O)(=O)CF)C1Cc1cccc(-c2ccccc2)c1F (racemic) [Compound 109, N-ethyl-6-((2-fluoro-[1,1′-biphenyl]-3-yl)methyl)-7-((fluoromethyl)sulfonamido)-5-azaspiro[2.4]heptane-5-carboxamide] | 0.0794 to 1 | 90 to 100
17 | CS(=O)(=O)N[C@@H]1[C@H](Cc2cccc(-c3ccccc3)c2)N(C(=O)C2(C#N)CCC2)CC12CC2 (racemic) [Compound 295] | 10 to 100 | 90 to 100
18 | CN(C)C(=O)N1CC2(CC2)[C@H](NS(C)(=O)=O)[C@@H]1Cc1cccc(-c2cc(F)cc(F)c2)c1 (racemic) [Compound 296, 6-((3′,5′-difluoro-[1,1′-biphenyl]-3-yl)methyl)-N,N-dimethyl-7-(methylsulfonamido)-5-azaspiro[2.4]heptane-5-carboxamide] | 10 to 100 | 90 to 100
19 | CC(C)C(=O)N1CC2(CC2)[C@H](NS(C)(=O)=O)[C@@H]1Cc1cccc(-c2ccccc2F)c1 (racemic) [Compound 297] | 1 to 10 | 90 to 100
20 | CS(=O)(=O)N[C@@H]1[C@H](Cc2cccc(-c3ccccc3)c2)N(C(=O)C2(O)CCC2)CC12CC2 (racemic) [Compound 298] | 1 to 10 | 90 to 100
21 | CC[C@@H](O)C(=O)N1CC2(CC2)[C@H](NS(C)(=O)=O)[C@@H]1Cc1cccc(-c2ccccc2)c1 (racemic) [Compound 300] | 10 to 100 | 90 to 100
22 | CS(=O)(=O)N[C@@H]1[C@H](Cc2cccc(-c3ccccc3)c2)N(C(=O)C2CCC2)CC12CC2 (racemic) [Compound 302, N-(-6-([1,1′-biphenyl]-3-ylmethyl)-5-(cyclobutanecarbonyl)-5-azaspiro[2.4]heptan-7-yl)methanesulfonamide] | 1 to 10 | 90 to 100
23 | CCNC(=O)N1CC2(CC2)[C@H](NS(C)(=O)=O)[C@@H]1Cc1cccc(-c2ccccc2)c1 (racemic) [Compound 303, 6-([1,1′-biphenyl]-3-ylmethyl)-N-ethyl-7-(methylsulfonamido)-5-azaspiro[2.4]heptane-5-carboxamide] | 1 to 10 | 90 to 100
24 | CC(C)C(=O)N1CC2(CC2)[C@H](NS(=O)(=O)N(C)C)[C@@H]1Cc1cccc(-c2ccccc2)c1 (racemic) [Compound 304] | 10 to 100 | 90 to 100
25 | COCCNC(=O)N1CC2(CC2)[C@H](NS(C)(=O)=O)[C@@H]1Cc1cccc(-c2ccccc2)c1F (racemic) [Compound 306, 6-((2-fluoro-[1,1′-biphenyl]-3-yl)methyl)-N-(2-methoxyethyl)-7-(methylsulfonamido)-5-azaspiro[2.4]heptane-5-carboxamide] | 10 to 100 | 90 to 100
26 | CS(=O)(=O)N[C@@H]1[C@H](Cc2cccc(-c3ccccc3)c2F)N(C(=O)NCCO)CC12CC2 (racemic) [Compound 307, 6-((2-fluoro-[1,1′-biphenyl]-3-yl)methyl)-N-(2-hydroxyethyl)-7-(methylsulfonamido)-5-azaspiro[2.4]heptane-5-carboxamide] | 1 to 10 | 90 to 100
27 | CS(=O)(=O)N[C@@H]1[C@H](Cc2cccc(-c3ccccc3)c2)N(C(=O)[C@H]2C[C@@H](F)C2)CC12CC2 (racemic) [Compound 308, N-(-6-([1,1′-biphenyl]-3-ylmethyl)-5-((1s,3R)-3-fluorocyclobutane-1-carbonyl)-5-azaspiro[2.4]heptan-7-yl)methanesulfonamide] | 10 to 100 | 90 to 100
